Assay results: the supplement of paper PMC11451515

Experiments:
Test in all cases: AUC of viability dose-response curve (% viability x log10 dose units); higher = less sensitive
Settings in all cases: 48 h
[1] = test system: NOMO1
Procedure, shortened: (§1)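 In 1536-well plates, leukemia cells adapted to each medium (500 or 1000 cells/well) were exposed for 48 h at 37°C to library compounds in DMSO across 11 threefold doses, 47 μM down to 0.79 nM. Viability was read by CellTiter-Glo One luminescence and normalised per plate to DMSO and cell-free wells. A four-parameter log-logistic fit over log10 doses was integrated by trapezoidal rule. This yielded the area under the curve, with over-full-viability curves scaled and quality-control failures dropped.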

[2] = test system: P12-Ichikawa
Procedure, shortened: as §1

[3] = test system: SEM cells
Procedure, shortened: as §1

[4] = RPMI 5 mM glucose + 10% dialyzed FBS

Structure (SMILES)	AUC of viability dose-response curve ([1]; HPLM + 10% dialyzed FBS)	AUC of viability dose-response curve ([1]; RPMI 5 mM glucose + 10% FBS)	AUC of viability dose-response curve [1, 4]	AUC of viability dose-response curve ([2]; HPLM + 10% dialyzed FBS)	AUC of viability dose-response curve ([2]; RPMI 5 mM glucose + 10% FBS)	AUC of viability dose-response curve [2, 4]	AUC of viability dose-response curve ([3]; HPLM + 10% dialyzed FBS)	AUC of viability dose-response curve ([3]; RPMI 5 mM glucose + 10% FBS)	AUC of viability dose-response curve [3, 4]
Cn1c(CNc2ccc(C(=N)N)cc2)nc2cc(C(=O)N(CCC(=O)O)c3ccccn3)ccc21	441	443	440	448	472	465	424	469	451
O=C1c2c(O)ccc(O)c2C(=O)c2c(NCCNCCO)ccc(NCCNCCO)c21	–	–	–	286	280	296	251	261	261
Nc1nc(N)c2nc(CNc3ccc(C(=O)NC(CCC(=O)O)C(=O)O)cc3)cnc2n1 (centres undefined)	344	414	286	283	313	272	290	394	247
C/C=C(/C)C(=O)O[C@H]1C(C)=C[C@]23C(=O)[C@@H](C=C(CO)[C@@H](O)[C@]12O)[C@H]1[C@@H](C[C@H]3C)C1(C)C	324	336	314	397	336	361	392	349	431
CC(N)C12CC3CC(CC(C3)C1)C2 (centres undefined)	453	437	443	449	456	455	468	447	477
CC(C)C(=O)Nc1ccc([N+](=O)[O-])c(C(F)(F)F)c1	332	309	320	350	360	378	453	472	461
C#C[C@]1(O)CC[C@H]2[C@@H]3CCc4cc(O)ccc4[C@H]3CC[C@@]21C	444	442	429	441	418	410	442	440	448
O=C(c1ccc(Nc2nccc(-c3cc4ccccc4s3)n2)cc1)N1CCC(N2CCCC2)CC1	411	446	432	430	441	425	382	389	394
Cc1c(C(=O)NN2CCCCC2)nn(-c2ccc(Cl)cc2Cl)c1-c1ccc(Cl)cc1	325	303	337	–	–	–	473	455	469
COc1cc2ncnc(Nc3ccc(F)c(Cl)c3)c2cc1NC(=O)/C=C/CN1CCCCC1	408	426	418	433	444	436	417	415	416
NC\1=N\C(=O)N(\C=C1)[C@@H]2O[C@H](CO)[C@@H](O)[C@H]2O	417	463	466	467	471	469	452	443	438
FC(F)c1nc2ccccc2n1-c1nc(N2CCOCC2)nc(N2CCOCC2)n1	260	329	333	413	367	394	325	351	326
CN(C)[C@H]\1[C@@H]2C[C@H]3C(=C(O)\[C@]2(O)C(=O)\C(=C1O)C(N)=O)/C(=O)C4=C(O)C=CC=C4[C@@]3(C)O	468	443	454	470	467	461	426	441	452
CCn1c(-c2nonc2N)nc2cnc(Oc3cccc(NC(=O)c4ccc(OCCN5CCOCC5)cc4)c3)cc21	456	432	429	446	427	438	457	442	456
Cc1cc(C(C)(C)C)c(O)c(C)c1CC1=NCCN1	432	419	422	454	444	429	360	392	400
N#Cc1c(NC(=O)c2cccc3ccccc23)sc2c1CCCC2	345	339	346	325	325	346	318	304	310
C[S+]([O-])(=O)C1=CC=C(C=C1)C/2=C(/C(=O)OC2)C3=CC=CC=C3	465	463	445	468	449	472	466	431	453
Cc1[nH]c2ccccc2c1CCNCc1ccc(/C=C/C(=O)NO)cc1	300	311	312	298	292	304	265	251	273
CN(NC(=O)CC(=O)NN(C)C(=S)c1ccccc1)C(=S)c1ccccc1	207	197	178	216	204	217	–	–	–
COc1ncc(-c2ccc3nccc(-c4ccnnc4)c3c2)cc1N[S+](=O)([O-])c1ccc(F)cc1F	303	279	297	354	266	310	–	–	–
CC(C)C(=O)Oc1ccc(CO)cc1[C@H](CCN(C(C)C)C(C)C)c1ccccc1	–	–	–	405	398	381	376	402	433
CC(C)(C)c1[nH]cnc1/C=c1\[nH]c(=O)/c(=C/c2ccccc2)[nH]c1=O	200	129	160	–	–	–	–	–	–
C\C1=C(\C=C(\C#N)C(=O)N1)C2=CC=NC=C2	474	464	468	–	–	–	418	471	460
OC[C@H]1OCC(O1)[N@@]2C=CC(N)=NC2=O (some centres undefined)	465	463	475	458	458	446	–	–	–
